Reference: the NIST ThermoML archive (doi:10.1016/j.fluid.2007.11.005)

Conditions: Liquid, Bellows volumetry

CCCCCCCCOS(=O)(=O)[O-].CCCCn1cc[n+](C)c1 [1-butyl-3-methylimidazolium octyl sulfate]
mass density [kg/m3]
Conditions	312.9 K	332.8 K	352.8 K	373 K	393.1 K	413 K	432.9 K	452.7 K	472.6 K
100 kPa	1060	–	–	–	–	–	–	–	–
10000 kPa	1065	1052	1040	1028	1016	1004	992	978	964
20000 kPa	1070	1058	1046	1034	1023	1011	999	985	972
30000 kPa	1075	1063	1051	1040	1028	1017	1006	992	980
40000 kPa	1080	1068	1056	1045	1034	1023	1012	999	987
50000 kPa	1084	1073	1061	1050	1039	1029	1018	1005	993
60000 kPa	1091	1077	1066	1055	1045	1034	1023	1011	999
70000 kPa	1093	1081	1070	1060	1049	1039	1029	1017	1005
80000 kPa	1097	1085	1075	1064	1054	1044	1034	1022	1011
90000 kPa	1096	1089	1079	1068	1058	1049	1038	1027	1016
100000 kPa	–	1093	1083	1073	1063	1053	1043	1032	1021
110000 kPa	–	1097	1087	1077	1067	1057	1048	1036	1026
120000 kPa	–	1101	1090	1080	1071	1062	1052	1041	1030
130000 kPa	–	1104	1094	1084	1075	1066	1056	1045	1035
140000 kPa	–	1107	1097	1088	1078	1069	1060	1049	1039
150000 kPa	–	1111	1101	1091	1082	1073	1064	1053	1043
160000 kPa	–	1114	1104	1095	1086	1077	1068	1057	1047
170000 kPa	–	1117	1107	1098	1089	1080	1071	1061	1051
180000 kPa	–	1120	1111	1102	1093	1084	1075	1065	1055
190000 kPa	–	1123	1114	1105	1096	1087	1078	1068	1059
200000 kPa	–	1126	1117	1108	1099	1091	1082	1072	1062
